Literature values in patent US4127530A, “Novel heneicosapeptides, intermediates therefor and pharmaceutical compositions and methods employing said heneicosapeptides” (priority 1977, dated 1978).

Columns and labels:
[1] = system: partially purified brain opiate receptor sites; details: for opioid activity in binding to partially purified brain opiate receptor sites: fragments isolated from the pituitary
[2] = injected directly into the brain of the rat

Substance | binding to partially purified brain opiate receptor sites ([1]; natural peptide) | analgesic activity [2] | opioid activity in binding to partially purified brain opiate receptor sites [1]
H-Tyr-Gly-Gly-Phe-Met-OH [methionine enkephalin] | binds stereo-specifically | weak analgesic agent of short duration | 
α-endorphin |  |  | potent opioid activity
β-endorphin: β-lipotropin fragment 61-91 |  |  | potent opioid activity
γ-endorphin |  |  | potent opioid activity
